In patent US8030500B2, “Substituted isoindoles for the treatment and/or prevention of Aβ- related pathologies” (AstraZeneca AB, priority 2008, dated 2011) one finds IC50 data, which are given here for 32 compounds.

Where a name gives a salt, the structure may show the parent alone. Read-outs that look alike come from different tables or passages of the source.

The target in the experiment is T1, human β-Secretase (Homo sapiens, UniProt P56817).
T1 construct: soluble part of the human β-Secretase (AA 1-AA 460); Fc domain of IgG1; made in house
T1 sequence (P56817 22-460): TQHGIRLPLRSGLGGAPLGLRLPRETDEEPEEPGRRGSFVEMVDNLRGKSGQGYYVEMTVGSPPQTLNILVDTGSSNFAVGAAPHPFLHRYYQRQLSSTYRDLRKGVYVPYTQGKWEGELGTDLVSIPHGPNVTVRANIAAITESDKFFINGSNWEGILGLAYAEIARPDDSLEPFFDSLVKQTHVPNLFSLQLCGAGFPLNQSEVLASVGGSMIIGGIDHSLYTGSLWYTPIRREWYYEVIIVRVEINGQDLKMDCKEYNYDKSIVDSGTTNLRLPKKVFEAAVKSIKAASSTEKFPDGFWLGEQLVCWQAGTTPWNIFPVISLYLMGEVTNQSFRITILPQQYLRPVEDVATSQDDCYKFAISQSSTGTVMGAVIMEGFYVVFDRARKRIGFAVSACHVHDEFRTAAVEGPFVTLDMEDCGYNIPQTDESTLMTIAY
The experiment can be described thus: TR-FRET assay (β-secretase enzyme, sBACE-Fc). The class given is biochemical. Here is the method:
The β-secretase enzyme used in the TR-FRET is prepared as follows:
The cDNA for the soluble part of the human β-Secretase (AA 1-AA 460) was cloned using the ASP2-Fc10-1-IRES-GFP-neoK mammalian expression vector. The gene was fused to the Fc domain of IgG1 (affinity tag) and stably cloned into HEK 293 cells.
The robotic systems Biomek FX and Velocity 11 were used for all liquid handling and the enzyme and substrate solutions were kept on ice until they were placed in the robotic system. Enzyme (9 μl) was added to the plate then 1 μl of compound in dimethylsulphoxide was added, mixed and pre-incubated for 10 minutes. Substrate (10 μl) was then added, mixed and the reaction proceeded for 15 minutes at room temperature. The reaction was stopped with the addition of Stop solution (7 μl, NaAcetate, pH 9). […] The dimethylsulphoxide control, instead of test compound, defined the 100% activity level and 0% activity was defined by wells lacking enzyme (replaced with reaction buffer).

[1] abbreviates: soluble human β-secretase (sBACE-Fc), substrate (Europium)[…](Qsy7) 100 nM, pH4.5, read-out: IC50 in TR-FRET assay.

Turning to `Cc1cc(C2(c3cc(-c4cncnc4)ccc3F)N=C(N)c3c(F)cccc32)ccn1` (centres unmarked) [Example 1, 4-Fluoro-1-(2-fluoro-5-(pyrimidin-5-yl)phenyl)-1-(2-methylpyridin-4-yl)-1H-isoindol-3-amine], the IC50 under setting [1] is 1600 nM.
For `Cc1cc(C2(c3cc(-c4cncc(S(C)(=O)=O)c4)ccc3F)N=C(N)c3c(F)cccc32)ccn1` (centres unmarked) [Example 2, 4-Fluoro-1-(2-fluoro-5-(5-(methylsulfonyl)pyridin-3-yl)phenyl)-1-(2-methylpyridin-4-yl)-1H-isoindol-3-amine], under “stated in the text of the example, read-out: IC50 in the FRET assay”, the IC50 was found to be 27000 nM.
On to `Cc1cc(C2(c3cc(-c4cncc(C#N)c4)ccc3F)N=C(N)c3c(F)cccc32)ccn1` (centres unmarked) [Example 3, 5-(3-(3-Amino-4-fluoro-1-(2-methylpyridin-4-yl)-1H-isoindol-1-yl)-4-fluorophenyl)nicotinonitrile], for which, under setting [1], the IC50 was 1800 nM.
With `Cc1cc(C2(c3cc(-c4cncc(F)c4)ccc3F)N=C(N)c3c(F)cccc32)ccn1` (centres unmarked) [Example 4, 4-Fluoro-1-(2-fluoro-5-(5-fluoropyridin-3-yl)phenyl)-1-(2-methylpyridin-4-yl)-1H-isoindol-3-amine], the half-inhibitory concentration (IC50) under setting [1] worked out at 1600 nM.
As for `Cc1cc(C2(c3cc(-c4cccnc4)ccc3F)N=C(N)c3c(F)cccc32)ccn1` (centres unmarked) [Example 5, 4-Fluoro-1-(2-fluoro-5-(pyridin-3-yl)phenyl)-1-(2-methylpyridin-4-yl)-1H-isoindol-3-amine], the IC50 under setting [1] stood at 1700 nM.
Still for that read-out and setting: the result for `NC1=NC(c2ccnc(C(F)(F)F)c2)(c2cc(-c3cncnc3)ccc2F)c2cccc(F)c21` (centres unmarked) [Example 6, 4-Fluoro-1-(2-fluoro-5-(pyrimidin-5-yl)phenyl)-1-(2-(trifluoromethyl)pyridin-4-yl)-1H-isoindol-3-amine] reads 1100 nM; that for `N#Cc1cncc(-c2ccc(F)c(C3(c4ccnc(C(F)(F)F)c4)N=C(N)c4c(F)cccc43)c2)c1` (centres unmarked) [Example 7, 5-(3-(3-Amino-4-fluoro-1-(2-(trifluoromethyl)pyridin-4-yl)-1H-isoindol-1-yl)-4-fluorophenyl)nicotinonitrile], 2000 nM; that for `CS(=O)(=O)c1cncc(-c2ccc(F)c(C3(c4ccnc(C(F)(F)F)c4)N=C(N)c4c(F)cccc43)c2)c1` (centres unmarked) [Example 8, 4-Fluoro-1-(2-fluoro-5-(5-(methylsulfonyl)pyridin-3-yl)phenyl)-1-(2-(trifluoromethyl)pyridin-4-yl)-1H-isoindol-3-amine], 12000 nM.
Still for that read-out and setting: the result for `NC1=NC(c2ccncc2)(c2cccc(-c3cccc(Cl)c3)c2)c2cccc(F)c21` (centres unmarked) [Example 9, 1-(3′-Chlorobiphenyl-3-yl)-4-fluoro-1-(pyridin-4-yl)-1H-isoindol-3-amine] reads 75 nM; that for `NC1=NC(c2ccncc2)(c2cccc(-c3cncnc3)c2)c2cccc(F)c21` (centres unmarked) [Example 10, 4-Fluoro-1-(pyridin-4-yl)-1-(3-(pyrimidin-5-yl)phenyl)-1H-isoindol-3-amine], 160 nM; that for `COc1cccc(-c2cccc(C3(c4ccncc4)N=C(N)c4c(F)cccc43)c2)c1F` (centres unmarked) [Example 14, 4-Fluoro-1-(2′-fluoro-3′-methoxybiphenyl-3-yl)-1-(pyridin-4-yl)-1H-isoindol-3-amine], 95 nM.
On the same count and under the same terms, the result for `NC1=NC(c2ccncc2)(c2cccc(-c3cncc(F)c3)c2)c2cccc(F)c21` (centres unmarked) [Example 15, 4-Fluoro-1-(3-(5-fluoropyridin-3-yl)phenyl)-1-(pyridin-4-yl)-1H-isoindol-3-amine] reads 140 nM.
Regarding `NC1=NC(c2ccncc2)(c2ccc(F)c(-c3cncnc3)c2)c2cccc(F)c21` (centres unmarked) [Example 16, 4-Fluoro-1-(4-fluoro-3-(pyrimidin-5-yl)phenyl)-1-(pyridin-4-yl)-1H-isoindol-3-amine], under setting [1], the IC50 came to 320 nM.
The same measure, in the same setting: the result for `COc1ccc(C2(c3cccc(-c4cncnc4)c3)N=C(N)c3c(F)cccc32)cc1` (centres unmarked) [Example 17, 4-Fluoro-1-(4-methoxyphenyl)-1-(3-(pyrimidin-5-yl)phenyl)-1H-isoindol-3-amine] reads 110 nM; that for `COc1cccc(-c2cc(C3(c4cncnc4)N=C(N)c4c(F)cccc43)ccc2F)c1F` (centres unmarked) [Example 18, 1-(2′,6-Difluoro-3′-methoxybiphenyl-3-yl)-4-fluoro-1-(pyrimidin-5-yl)-1H-isoindol-3-amine], 3400 nM; that for `COc1ccnc(-c2cc(C3(c4cncnc4)N=C(N)c4c(F)cccc43)ccc2F)c1` (centres unmarked) [Example 19, 4-Fluoro-1-(4-fluoro-3-(4-methoxypyridin-2-yl)phenyl)-1-(pyrimidin-5-yl)-1H-isoindol-3-amine], 4100 nM.
Same read-out and setting: the result for `NC1=NC(c2cccc(-c3cncnc3)c2)(c2ccnc(C(F)(F)F)c2)c2cccc(F)c21` (centres unmarked) [Example 20, 4-Fluoro-1-(3-(pyrimidin-5-yl)phenyl)-1-(2-(trifluoromethyl)pyridin-4-yl)-1H-isoindol-3-amine] reads 240 nM; that for `Cc1cc(C2(c3cccc(-c4cncnc4)c3)N=C(N)c3c(F)cccc32)cc(C)n1` (centres unmarked) [Example 21, 1-(2,6-Dimethylpyridin-4-yl)-4-fluoro-1-(3-(pyrimidin-5-yl)phenyl)-1H-isoindol-3-amine], 1100 nM; that for `Cc1cc(C2(c3cccc(-c4cncc(C#N)c4)c3)N=C(N)c3c(F)cccc32)cc(C)n1` (centres unmarked) [Example 22, 5-(3-(3-Amino-1-(2,6-dimethylpyridin-4-yl)-4-fluoro-1H-isoindol-1 yl)phenyl)nicotinonitrile], 870 nM.
The same measure, in the same setting: the result for `N#Cc1cncc(-c2cccc(C3(c4ccnc(C(F)(F)F)c4)N=C(N)c4c(F)cccc43)c2)c1` (centres unmarked) [Example 23, 5-(3-(3-Amino-4-fluoro-1-(2-(trifluoromethyl)pyridin-4-yl)-1H-isoindol-1-yl)phenyl)nicotinonitrile] reads 250 nM; that for `COc1cc(C2(c3ccc(F)c(-c4cncnc4)c3)N=C(N)c3c(F)cccc32)ccn1` (centres unmarked) [Example 24, 4-Fluoro-1-(4-fluoro-3-(pyrimidin-5-yl)phenyl)-1-(2-methoxypyridin-4-yl)-1H-isoindol-3-amine], 280 nM; that for `N#Cc1cncc(-c2cc(C3(c4ccnc(C(F)(F)F)c4)N=C(N)c4c(F)cccc43)ccc2F)c1` (centres unmarked) [Example 25, 5-(5-(3-Amino-4-fluoro-1-(2-(trifluoromethyl)pyridin-4-yl)-1H-isoindol-1-yl)-2-fluorophenyl) nicotinonitrile trifluoroacetate], 370 nM.
For `N#Cc1cncc(-c2cc(C3(c4ccncc4)N=C(N)c4c(F)cccc43)ccc2F)c1` (centres unmarked) [Example 26, 5-(5-(3-Amino-4-fluoro-1-(pyridin-4-yl)-1H-isoindol-1-yl)-2-fluorophenyl) nicotinonitrile], the 50% inhibitory concentration (IC50) under setting [1] is 460 nM.
For `COc1cc(C2(c3cccc(-c4cncnc4)c3)N=C(N)c3c(F)cccc32)ccn1` (centres unmarked) [Example 27, 4-Fluoro-1-(2-methoxypyridin-4-yl)-1-(3-(pyrimidin-5-yl)phenyl)-1H-isoindol-3-amine], the IC50 under setting [1] worked out at 400 nM.
Consider `COc1cc(C2(c3cccc(-c4cncc(C#N)c4)c3)N=C(N)c3c(F)cccc32)ccn1` (centres unmarked) [Example 28, 5-(3-(3-Amino-4-fluoro-1-(2-methoxypyridin-4-yl)-1H-isoindol-1-yl)phenyl)nicotinonitrile acetate], for which the IC50 under setting [1] stood at 470 nM.
In the case of `COc1cc(C2(c3cccc(-c4cnccn4)c3)N=C(N)c3c(F)cccc32)ccn1` (centres unmarked) [Example 29, 4-Fluoro-1-(2-methoxypyridin-4-yl)-1-(3-(pyrazin-2-yl)phenyl)-1H-isoindol-3-amine acetate], the IC50 under setting [1] is 200 nM.
Same read-out and setting: the result for `NC1=NC(c2cccc(-c3cnccn3)c2)(c2ccnc(C(F)(F)F)c2)c2cccc(F)c21` (centres unmarked) [Example 30, 4-Fluoro-1-(3-(pyrazin-2-yl)phenyl)-1-(2-(trifluoromethyl)pyridin-4-yl)-1H-isoindol-3-amine] reads 320 nM.
On the same count and under the same terms, the result for `Cc1cc(C2(c3cccc(-c4cncnc4)c3)N=C(N)c3c(F)cccc32)cc(C(F)F)n1` (centres unmarked) [Example 32, 1-(2-(Difluoromethyl)-6-methylpyridin-4-yl)-4-fluoro-1-(3-(pyrimidin-5-yl)phenyl)-1H-isoindol-3-amine] reads 90 nM; that for `Cc1cc(C2(c3ccnc(-c4cncnc4)c3)N=C(N)c3c(F)cccc32)cc(C(F)F)n1` (centres unmarked) [Example 33, 1-(2-(Difluoromethyl)-6-methylpyridin-4-yl)-4-fluoro-1-(2-(pyrimidin-5-yl)pyridin-4-yl)-1H-isoindol-3-amine], 730 nM.
Same read-out and setting: the result for `COc1c(C)cc(C2(c3ccnc(-c4cncnc4)c3)N=C(N)c3c(F)cccc32)cc1F` (centres unmarked) [Example 34, 4-Fluoro-1-(3-fluoro-4-methoxy-5-methylphenyl)-1-(2-(pyrimidin-5-yl)pyridin-4-yl)-1H-isoindol-3-amine] reads 81 nM.
Take `COc1c(C)cc(C2(c3ccnc(-c4cncnc4)c3)N=C(N)c3c(F)cccc32)cc1C` (centres unmarked) [Example 35, 4-Fluoro-1-(4-methoxy-3,5-dimethylphenyl)-1-(2-(pyrimidin-5-yl)pyridin-4-yl)-1H-isoindol-3-amine]: the IC50 under setting [1] turned out to be 35 nM.
Still for that read-out and setting: the result for `COc1c(C)cc(C2(c3ccnc(-c4cncnc4)c3)N=C(N)c3c(F)cccc32)nc1C` (centres unmarked) [Example 36, 4-Fluoro-1-(5-methoxy-4,6-dimethylpyridin-2-yl)-1-(2-(pyrimidin-5-yl)pyridin-4-yl)-1H-isoindol-3-amine] reads 490 nM.
